Reference: patent US12630536B2, “Cyanotriazine derivative, preparation method therefor, and application thereof” (Chengdu Fanxi Biopharma Co., LTD., priority 2020, dated 2026)

Tests used:
[1] = molecular target: T1, THR-β ligand-binding domain (H6-THR-β) (Homo sapiens, UniProt P10828); assay: Co-activated peptide recruitment test of THR-β/RXR/GRIP1 (TR_LBD agonist detection, HTRF); type: biochemical
T1 construct: made in house; host or cells: Escherichia coli BL21 (DE3), vector pET28a
T1 sequence (P10828 217-461 limits assumed): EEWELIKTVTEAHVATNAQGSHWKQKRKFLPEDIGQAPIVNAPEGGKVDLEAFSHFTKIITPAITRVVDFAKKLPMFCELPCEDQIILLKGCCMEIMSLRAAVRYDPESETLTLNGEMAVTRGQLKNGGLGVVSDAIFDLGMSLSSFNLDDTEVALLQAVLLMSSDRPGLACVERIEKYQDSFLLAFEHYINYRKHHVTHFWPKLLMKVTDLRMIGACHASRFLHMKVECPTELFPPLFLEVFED
T1 sequence (P19793 225-462 partner limits assumed): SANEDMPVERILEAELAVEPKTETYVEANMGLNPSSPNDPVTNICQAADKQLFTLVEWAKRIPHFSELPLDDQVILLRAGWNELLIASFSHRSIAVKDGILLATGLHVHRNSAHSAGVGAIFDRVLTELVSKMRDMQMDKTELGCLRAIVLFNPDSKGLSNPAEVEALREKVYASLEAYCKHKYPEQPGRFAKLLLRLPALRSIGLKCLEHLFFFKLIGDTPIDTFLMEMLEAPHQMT
T1 sequence (Q15596 679-703 partner limits assumed): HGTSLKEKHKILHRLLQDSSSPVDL
Description: (§1) A ligand binding domain of THR-β (amino acids 148-410) (H6-THR-β) and a ligand binding domain of THR-α (amino acids 202-461) (H6-TRα) were cloned into E. coli expression vector pET28a (Novagen, Milwaukee, Wis.) containing N-terminal six His sequences. The resulting recombinant six-His-tagged protein was produced in E. coli BL21(DE3) cells. The cells were grown in Terrific Broth (self-used self-prepared Bacto tryptone (3.3%, w/v), Difico yeast extract (2.0%, w/v) and NaCl (0.5%, w/v) medium), incubated at 25° C. for 24 hours using a shake flask in 0.2 mM IPTG, harvested or dissolved with 5 volumes of buffer A (0.05 M Tris, 0.3 M NaCl, 1% W/V betaine, 0.01 M imidazole, 0.02 M b-mercaptoethanol, pH 8.0). Lysozyme (1.0 mg/ml, Sigma) and CompleteProtease Inhibitor Cocktail (Roche Diagnostics Gmbh) were added to the slurry and the solution was sonicated for one minute and 5 times at 4° C. The suspension was centrifuged at 127,300 RCF for 2 hours in a Ti45 Beckmann rotor and the supernatant was loaded onto an NI NTAAgarose (Quigen 30210) column. After washing with the buffer A, […] or H6-THR-α was eluted with the buffer A containing 0.25 M imidazole.
(§2) 30 microliters of H6-THR-β (50 nM) or H6-THR-α in 50 mM Hepes, pH 7.0, 1 mM DTT, 0.05% NP40 and 0.2 mg/ml BSA (binding buffer) were mixed with an equal volume of EE-RxRα (50 nM) in the binding buffer. […] Aliquot ([…]) was transferred to a 384-well black microtiter plate. HTRF signal was read on a Victor5 reader (PerkinElmer Life and Analytical Sciences). EC50 was calculated.
(§3) Gene clones expressing a ligand-binding domain (amino acids 148-410) of THR-β (H6-THR-β) and a ligand-binding domain (amino acids 202-461) of THR-α (H6-THR-α) were inserted into an Escherichia coli expression vector pET28a, and the expression vector contained one N-terminal 6-His sequence. The expression vector was introduced into an Escherichia coli BL21 (DE3) strain to produce a recombinant protein with a His tag. […] After finishing culturing, a bacterium in culture was collected, and the collected bacterium was resuspended with a lysis solution (0.05 M Tris, 0.3 M NaCl, 1% W/V betaine, 0.01 M imidazole, 0.02 M β-mercaptoethanol, and pH 8.0) with a volume 5 times that of the bacterium, and lysozyme and protease inhibitors were added at the same time, the treated bacteria was subjected to ultrasonic lysis (5 times per minute) in ice bath (4° C.). A lysed suspension was centrifuged at 127300 RCF for 2 hours, a supernatant was loaded on a NI_NTA agarose (Quigen 30210) column, and after washing with a buffer A, an H6-TRβ or H6-TRα protein was eluted with the buffer A containing 0.25 M imidazole.
(§4) A human retinol X receptor (amino acid 225-462) (RxRα) was subjected to engineering modification, so that an N-terminal of the human retinol X receptor had His6 and EE(EFMPME) tags, and then the human retinol X receptor was cloned into a pACYC vector, and produced a His6 EEtagged protein in Escherichia coli. IPTG with a final concentration of 0.1 mM was added into the culture medium for induction, and cultured in a shaking flask at 18° C. for 18 hours. After finishing culturing, a bacterium in culture was collected, and the collected bacterium was re-suspended with a lysis solution (0.05 M Tris, 0.3 M NaCl, 1% W/V betaine, 0.01 M imidazole, 0.02 β-mercaptoethanol, and pH 8.0) with a volume 5 times that of the bacterium, lysozyme and protease inhibitors were added at the same time, and stirred at 4° C. for 30 minutes. Then, a suspension was subjected to an ultrasonic treatment at 4° C. for 30 seconds for 5 times. The suspension was collected, and centrifuged at 12000 RCF for 20 minutes. A supernatant was collected, and the supernatant was filtered with a membrane with a pore size of 0.45 μm, and then added with 0.5% NP-40.

[2] = molecular target: T2, THR-α ligand-binding domain (H6-THR-α) (Homo sapiens, UniProt P10827); assay: Co-activated peptide recruitment test of THR-α/RXR/GRIP1 (TR_LBD agonist detection, HTRF); type: biochemical
T2 construct: made in house; host or cells: Escherichia coli BL21 (DE3), vector pET28a
T2 sequence (P10827 148-410 isoform P10827-2 limits assumed): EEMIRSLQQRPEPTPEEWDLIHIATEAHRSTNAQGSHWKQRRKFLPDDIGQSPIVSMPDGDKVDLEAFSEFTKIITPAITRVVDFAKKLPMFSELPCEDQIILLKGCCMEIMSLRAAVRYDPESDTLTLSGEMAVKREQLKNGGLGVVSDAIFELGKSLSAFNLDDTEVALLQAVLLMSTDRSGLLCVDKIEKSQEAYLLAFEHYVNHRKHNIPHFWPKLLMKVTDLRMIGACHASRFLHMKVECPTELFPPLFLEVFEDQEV
T2 sequence (P19793 225-462 partner limits assumed): T1 sequence (P19793 225-462 partner limits assumed)
T2 sequence (Q15596 679-703 partner limits assumed): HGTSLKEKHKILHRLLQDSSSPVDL
Description: as §1, §2, §3, §4

Cn1cnc2ccc(Oc3c(Br)cc(-n4nc(C#N)c(=O)[nH]c4=O)cc3Br)cc21 [Compound 1, 2-(3,5-dibromo-4-((1-methyl-1H-benzo[d]imidazol-6-yl)oxy)phenyl)-3,5-dioxo-2,3,4,5-tetra hydro-1,2,4-triazine-6-carbonitrile]
EC50 ([1]; Detection of TR_LBD agonist, read-out: TR_beta_EC50): 4.96 nM
Maximum activity ratio (A520/A495) ([1]; TR_LBD agonist, TR_β): 4.02
Measurement of cpd/T3 (maximum ratio) ([1]; TR_LBD agonist, TR_β, maximum relative to T3): 73.4%
α/β ([1]; TR_LBD agonist, ratio TR_α EC50 / TR_β EC50): 7.13
EC50 ([2]; Detection of TR_LBD agonist, read-out: TR_α_EC50): 35.3 nM
Maximum activity ratio (A520/A495) ([2]; TR_LBD agonist, TR_α): 3.83
Measurement of cpd/T3 (maximum ratio) ([2]; TR_LBD agonist, TR_α, maximum relative to T3): 71.1%
